Data taken from ChEMBL document CHEMBL5715954, “Silencing c-Myc translation as a therapeutic strategy through targeting PI3Kδ and CK1ε in hematological malignancies” (Blood, 2017).
The source made the active and inactive calls. The calls are words filed in the database; no cut-off is given here.

Columns and labels:
Assay type in all cases: cell-based
[1] = molecular target: T1, mTORC1 (Homo sapiens) (UniProt P42345+Q8N122+Q9BVC4); assay: Inhibition of mTORC1 in human LY7 cells assessed as reduction in c-Myc expression at 3 uM measured after 24 hrs in presence of bortezomib by Western blot analysis
[2] = molecular target: T1, mTORC1 (Homo sapiens); assay: Inhibition of mTORC1 in human SLL cells assessed as reduction in 4E-BP1 phosphorylation at 5 uM measured after 24 hrs in presence of bortezomib by Western blot analysis
[3] = molecular target: T2, Phosphatidylinositol 4,5-bisphosphate 3-kinase catalytic subunit delta isoform (Homo sapiens) (UniProt O00329); assay: Inhibition of PI3Kdelta in human THP-1 cells assessed as reduction in AKT phosphorylation at S473 residue measured after 4 hrs; details: dose 10-10000 nM
T2 sequence (whole entry): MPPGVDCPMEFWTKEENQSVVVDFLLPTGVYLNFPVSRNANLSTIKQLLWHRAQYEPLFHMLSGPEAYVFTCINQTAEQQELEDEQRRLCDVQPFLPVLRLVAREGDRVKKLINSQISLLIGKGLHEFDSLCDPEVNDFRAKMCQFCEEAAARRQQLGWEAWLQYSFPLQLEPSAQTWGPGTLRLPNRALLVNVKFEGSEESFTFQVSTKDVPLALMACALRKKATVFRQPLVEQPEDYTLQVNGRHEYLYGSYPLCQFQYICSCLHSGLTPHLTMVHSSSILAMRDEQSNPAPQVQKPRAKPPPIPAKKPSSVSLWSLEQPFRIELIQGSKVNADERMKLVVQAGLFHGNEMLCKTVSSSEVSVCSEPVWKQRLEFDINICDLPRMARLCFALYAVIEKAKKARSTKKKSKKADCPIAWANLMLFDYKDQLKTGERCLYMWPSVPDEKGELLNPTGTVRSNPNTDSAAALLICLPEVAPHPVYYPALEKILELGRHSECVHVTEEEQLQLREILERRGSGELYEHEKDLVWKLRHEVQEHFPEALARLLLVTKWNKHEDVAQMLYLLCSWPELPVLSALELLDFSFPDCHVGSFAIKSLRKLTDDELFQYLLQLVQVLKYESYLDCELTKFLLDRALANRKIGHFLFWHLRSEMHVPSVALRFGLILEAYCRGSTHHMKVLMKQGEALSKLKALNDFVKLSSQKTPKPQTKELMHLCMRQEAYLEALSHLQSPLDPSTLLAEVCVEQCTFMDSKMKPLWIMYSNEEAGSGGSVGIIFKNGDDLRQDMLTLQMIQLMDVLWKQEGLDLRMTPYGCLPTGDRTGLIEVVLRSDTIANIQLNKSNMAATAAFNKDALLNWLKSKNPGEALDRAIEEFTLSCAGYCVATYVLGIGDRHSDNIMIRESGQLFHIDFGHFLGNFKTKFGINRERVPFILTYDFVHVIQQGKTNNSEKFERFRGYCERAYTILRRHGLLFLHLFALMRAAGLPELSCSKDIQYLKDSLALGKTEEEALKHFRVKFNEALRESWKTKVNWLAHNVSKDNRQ

[4] = molecular target: T1, mTORC1 (Homo sapiens); assay: Inhibition of mTORC1 in human NCI-H929 cells assessed as reduction in 4E-BP1 phosphorylation at 5 uM measured after 24 hrs in presence of carfilzomib by Western blot analysis
[5] = molecular target: Myc proto-oncogene protein (Homo sapiens) (UniProt P01106); assay: Inhibition of c-Myc in human LY7 cells assessed as reduction in E2F1 expression at 3 uM incubated for 24 hrs in presence of carfilzomib by Western blot analysis
[6] = molecular target: T1, mTORC1 (Homo sapiens); assay: Inhibition of mTORC1 in human LY7 cells assessed as reduction in c-Myc expression at 3 uM measured after 24 hrs in presence of carfilzomib by Western blot analysis
[7] = molecular target: T1, mTORC1 (Homo sapiens); assay: Inhibition of mTORC1 in human PF-382 cells assessed as reduction in 4E-BP1 phosphorylation at 5 uM measured after 24 hrs in presence of carfilzomib by Western blot analysis
[8] = system: OCILY7; assay: Inhibition of PI3Kdelta/CK1epsilon in human OCILY7 cells transfected with an empty vector assessed as reduction in c-Myc expression at 7.5 to 25 uM measured after 24 hrs by Western blot analysis; details: dose 7.5-25 µM
[9] = molecular target: Myc proto-oncogene protein (Homo sapiens) (UniProt P01106); assay: Inhibition of c-Myc in human LY10 cells assessed as reduction in eIF4B expression at 3 uM incubated for 24 hrs in presence of carfilzomib by Western blot analysis

T1 sequence (Q8N122 whole entry, looked up, other chains not shown): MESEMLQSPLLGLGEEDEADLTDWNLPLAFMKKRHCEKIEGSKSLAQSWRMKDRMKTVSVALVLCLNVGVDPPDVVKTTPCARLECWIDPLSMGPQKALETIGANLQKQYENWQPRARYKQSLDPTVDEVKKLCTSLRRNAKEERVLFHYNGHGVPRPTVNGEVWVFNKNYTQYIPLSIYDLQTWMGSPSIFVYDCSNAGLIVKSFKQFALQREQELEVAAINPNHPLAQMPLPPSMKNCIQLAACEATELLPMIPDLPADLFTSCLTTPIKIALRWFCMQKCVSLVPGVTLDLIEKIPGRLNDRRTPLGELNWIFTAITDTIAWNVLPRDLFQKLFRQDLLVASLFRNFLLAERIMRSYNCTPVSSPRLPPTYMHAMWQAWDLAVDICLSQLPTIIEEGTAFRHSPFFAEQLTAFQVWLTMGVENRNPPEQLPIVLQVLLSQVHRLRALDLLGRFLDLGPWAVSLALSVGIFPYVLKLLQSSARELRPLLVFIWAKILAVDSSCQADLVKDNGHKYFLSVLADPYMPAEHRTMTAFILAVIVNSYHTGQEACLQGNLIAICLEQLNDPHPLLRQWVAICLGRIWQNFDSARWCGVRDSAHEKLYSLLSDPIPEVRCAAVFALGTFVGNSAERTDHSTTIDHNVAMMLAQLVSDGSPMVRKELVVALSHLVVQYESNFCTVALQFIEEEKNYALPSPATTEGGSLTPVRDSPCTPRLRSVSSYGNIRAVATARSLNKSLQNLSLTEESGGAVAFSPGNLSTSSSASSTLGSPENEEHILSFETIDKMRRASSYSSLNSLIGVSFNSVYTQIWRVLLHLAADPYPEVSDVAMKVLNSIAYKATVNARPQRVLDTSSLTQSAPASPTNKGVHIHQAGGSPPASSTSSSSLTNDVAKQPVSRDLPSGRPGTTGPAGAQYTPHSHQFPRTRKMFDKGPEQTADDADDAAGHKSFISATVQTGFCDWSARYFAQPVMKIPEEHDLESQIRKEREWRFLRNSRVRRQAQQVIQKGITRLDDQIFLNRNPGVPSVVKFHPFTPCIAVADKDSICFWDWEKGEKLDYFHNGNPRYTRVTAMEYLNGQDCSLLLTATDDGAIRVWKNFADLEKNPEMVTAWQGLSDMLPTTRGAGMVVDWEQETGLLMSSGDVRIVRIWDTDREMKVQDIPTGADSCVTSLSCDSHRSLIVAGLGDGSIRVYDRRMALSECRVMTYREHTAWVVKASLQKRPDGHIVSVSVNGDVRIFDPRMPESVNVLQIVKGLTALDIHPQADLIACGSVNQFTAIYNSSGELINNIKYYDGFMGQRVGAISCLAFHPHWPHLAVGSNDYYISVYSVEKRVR
T1 sequence (Q9BVC4 whole entry, looked up, other chains not shown): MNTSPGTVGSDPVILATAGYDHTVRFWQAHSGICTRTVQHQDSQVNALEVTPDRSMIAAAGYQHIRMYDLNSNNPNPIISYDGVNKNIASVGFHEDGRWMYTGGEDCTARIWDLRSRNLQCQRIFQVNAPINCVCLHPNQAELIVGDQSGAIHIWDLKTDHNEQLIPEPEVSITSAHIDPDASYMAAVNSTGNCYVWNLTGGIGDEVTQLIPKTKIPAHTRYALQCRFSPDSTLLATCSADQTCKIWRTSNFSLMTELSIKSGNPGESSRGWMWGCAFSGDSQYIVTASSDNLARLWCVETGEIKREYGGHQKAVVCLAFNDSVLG
Myc proto-oncogene protein (Homo sapiens), sequence (P01106 whole entry): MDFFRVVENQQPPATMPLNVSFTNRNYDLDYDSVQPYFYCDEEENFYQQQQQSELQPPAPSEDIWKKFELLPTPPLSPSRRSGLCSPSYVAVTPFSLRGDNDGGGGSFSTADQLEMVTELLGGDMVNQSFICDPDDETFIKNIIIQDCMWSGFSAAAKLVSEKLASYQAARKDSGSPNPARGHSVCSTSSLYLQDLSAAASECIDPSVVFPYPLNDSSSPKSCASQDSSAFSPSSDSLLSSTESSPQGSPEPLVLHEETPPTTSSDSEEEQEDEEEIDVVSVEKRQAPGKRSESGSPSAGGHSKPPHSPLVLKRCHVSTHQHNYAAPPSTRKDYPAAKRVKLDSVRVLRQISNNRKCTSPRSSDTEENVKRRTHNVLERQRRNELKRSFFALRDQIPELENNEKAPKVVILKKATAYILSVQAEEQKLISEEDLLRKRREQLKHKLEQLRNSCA

Row | Structure (SMILES) | inhibition [1] | inhibition [2] | inhibition [3] | inhibition [4] | inhibition [5] | inhibition [6] | inhibition [7] | inhibition [8] | inhibition [9]
1 | CC[C@H](Nc1ncnc2[nH]cnc12)c1nc2cccc(F)c2c(=O)n1-c1ccccc1 | inactive | inactive | – | – | – | – | – | – | –
2 | CC(C)Oc1ccc(-c2nn([C@@H](C)c3oc4ccc(F)cc4c(=O)c3-c3cccc(F)c3)c3ncnc(N)c23)cc1F [UMBRALISIB] | – | – | Dose-Dependent Effect | Active | Active | Active | Active | Active | Active
